{"source": "paper PMC13289212", "about": "“HIVIL: A human in vitro inflammatory liver model recapitulates immune-associated drug effects with high predictivity” (NAM journal, 2025)", "key": {"TNFα [1]": {"tested_on": "TNFα", "settings": "ref Shaw et al. 2010; Zou et al. 2009; Bekker et al. 2012; Gandhi et al. 2013; Heidari et al. 2019; cited from earlier work"}, "[2]": {"experiment": "AlamarBlue cell viability in HIVIL", "settings": "human", "procedure": "(§1) Stock solutions of drugs were prepared in dimethyl sulfoxide (DMSO) and dissolved in medium prior to use. […] For these two drugs, the highest DMSO concentration was 1 %. Supernatant was collected at 48 hr for measurement of cytokines, and remaining cells were subjected to viability assay prior to lysis for RNA extraction."}, "[3]": {"tested_on": "HIVIL (iKCs co-cultured with iHeps)", "experiment": "AlamarBlue cell viability in HIVIL", "procedure": "as §1"}, "iHeps": {"tested_on": "iHeps", "experiment": "RNA-Seq of iHeps from mono-culture and HIVIL", "format": "cell-based, human", "description": "Subsequent analyses compared gene fold-changes of treated samples against their respective vehicle controls: \"m\" and \"c\" indicate mono- and co-culture, and \"–\" and \"+\" represent the absence or presence of LPS. […] However, this is only applicable for co-cultures where downstream effects can be traced back to cytokine changes, and not in monocultures where significant upstream cytokine changes are not observed.\nRNA extraction was done using TRIzol and analyzed on a Tapestation 4200 to determine RNA Integrity Number (RIN). Only samples with RIN > 8 were sequenced. Illumina Stranded mRNA multiplexing was done with unique 96 dual indices, and all samples sequenced on the same lane of NovaSeq 6000 S4 flowcell. Data normalization was performed using DESeq2 v1.32.0 ([Love et al., 2014]) on the R programming language v4.1.0 ([R Core Team, 2021]; [R Team, 2021]). Gene enrichment analysis was done with fgsea v1.18 ([Korotkevich et al., 2021]) with gene sets downloaded from MSigDB and KEGG pathway visualization done via pathview v1.32 ([Kanehisa et al., 2021]; [Luo and Brouwer, 2013]). Other plots were produced using ggplot2 v3.3.5 and scatterplot3d v0.3-41 ([Ligges and Maechler, 2003]). The RNA-Seq dataset has been deposited in NCBI under accession number GSE189320.\nRNA seq and analysis: After 48 hr of drug treatment, iHeps cultured in mono-culture and HIVIL were both subjected to TrypLE^TM dissociation, and subsequently sorted with magnetic separation with the CD163 Microbead kit (Miltenyi Biotec, Bergisch Gladbach, Germany) to obtain only iHeps. Flow-through was collected, pelleted down and snap-frozen in liquid nitrogen, before storage at -80°C. Lysates were sent to the Genome Research Informatics and Data Science platform (Agency for Science, Technology and Research, Singapore). RNA extraction was done using TRIzol and analyzed on a Tapestation 4200 to determine RNA Integrity Number (RIN). All sequenced samples included for further analysis had RIN > 8. Illumina Stranded mRNA multiplexing was done with unique 96 dual indices, and all samples sequenced on the same lane of NovaSeq 6000 S4 flowcell. Sequenced reads were trimmed for adaptor sequence using Trim Galore v0.6.4, then aligned to human genome build GRCh38 using STAR_2.6.1d. Aligned reads are summarized into count matrices using featureCounts v1.6.4 with the gene annotation file from GENCODE v37.\nData normalization was performed using DESeq2 v1.32.0 (Love et al. 2014) on the R programming language v4.1.0 (Core Team 2021; Team 2021). Gene enrichment analysis was done with fgsea v1.18 (Korotkevich et al. 2021) with gene sets downloaded from MSigDB and KEGG pathway visualization done via pathview v1.32 (Kanehisa et al. 2021; Luo and Brouwer 2013). Other plots were produced using ggplot2 v3.3.5 and scatterplot3d v0.3-41 (Ligges and Maechler 2003). The RNA-Seq dataset has been deposited in NCBI under accession number GSE189320."}, "TNFα [4]": {"tested_on": "TNFα", "experiment": "TNFα ELISA in HIVIL (iKCs co-cultured with iHeps, LPS, 48 hr)", "format": "cell-based, human", "settings": "low dose 3.125 μM and 6.25 μM", "description": "Human iPSC cell line iPS (IMR90)-4 was purchased from WiCell Research Institute (Madison, WI), and maintained with a feeder-free method according to the instruction from […] Technologies (Vancouver, BC, Canada). The protocol of differentiation towards iKCs and iHeps as described previously with slight modification ([Tasnim et al., 2019]; [Cai et al., 2012]), respectively. […] More details are provided in Supplementary Methods. After differentiation, iKCs was harvested using 0.05 % trypsin-EDTA (Gibco, Waltham, Massachusetts, USA), while iHeps were dissociated with TrypLE^TM (Gibco). iHep suspension was further filtered through a 40 µm cell strainer to remove extracellular matrix clumps. Cell suspension was centrifuged at 1000 rpm for 5 min. For co-culture set up, tissue culture plates were coated with Rat tail collagen I (Gibco) diluted 100-fold in 0.02 N acetic acid, and incubated at 37 °C for 1 h and washed 3 times with PBS. According to the protocol optimized by [Tasnim et al. (2019)], iKCs was firstly seeded at a density of 14,000 per well on 96-well plate with Advanced DMEM (plus supplements) containing 5 % FBS. On the following day, iHeps were added at a density of 35,000 per well in Williams’ Medium E (plus supplements) (iHep: iKCs ratio = 2.5: 1). This reflects the physiological ratio of these cells in vivo under inflammatory conditions ([Tasnim et al., 2021]). Fresh media containing drugs was applied to co-cultures the next day. 50,000 cells were seeded to establish iHeps monoculture. THP-1 cells were kindly obtained from Dr. Eliza Fong and cultured as described by [Zeng et al. (2015)]. Details provided in Supplementary Methods.\nas §1\nEnzyme-linked immunosorbent assay (ELISA) for measurement of cytokines: Interleukin-6 (IL-6), interleukin-10 (IL-10) and tumor necrosis factor alpha (TNFα) levels in the media were measured using the corresponding human-based ELISA kits (Abcam, Cambridge, United Kingdom) according to manufacturer’s instructions. The cytokine production from dosed cells was normalized with the viability value from the same well. The normalized cytokine level upon drug treatments was further presented as percentage of DMSO+LPS. […] This normalization approach has been used in previous studies (Rose et al. 2016)."}, "[5]": {"settings": "FDA-labeling information; ref Chen et al. 2016; cited from earlier work"}, "IL-10": {"tested_on": "IL-10", "experiment": "IL-10 ELISA in HIVIL (iKCs co-cultured with iHeps, LPS, 48 hr)", "format": "cell-based, human", "settings": "result in words", "description": "Human iPSC cell line iPS (IMR90)-4 was purchased from WiCell Research Institute (Madison, WI), and maintained with a feeder-free method according to the instruction from […] Technologies (Vancouver, BC, Canada). The protocol of differentiation towards iKCs and iHeps as described previously with slight modification ([Tasnim et al., 2019]; [Cai et al., 2012]), respectively. […] More details are provided in Supplementary Methods. After differentiation, iKCs was harvested using 0.05 % trypsin-EDTA (Gibco, Waltham, Massachusetts, USA), while iHeps were dissociated with TrypLE^TM (Gibco). iHep suspension was further filtered through a 40 µm cell strainer to remove extracellular matrix clumps. Cell suspension was centrifuged at 1000 rpm for 5 min. For co-culture set up, tissue culture plates were coated with Rat tail collagen I (Gibco) diluted 100-fold in 0.02 N acetic acid, and incubated at 37 °C for 1 h and washed 3 times with PBS. […]\nEnzyme-linked immunosorbent assay (ELISA) for measurement of cytokines: Interleukin-6 (IL-6), interleukin-10 (IL-10) and tumor necrosis factor alpha (TNFα) levels in the media were measured using the corresponding human-based ELISA kits (Abcam, Cambridge, United Kingdom) according to manufacturer’s instructions. […]"}, "IL-6": {"tested_on": "IL-6", "experiment": "IL-6 ELISA in HIVIL (iKCs co-cultured with iHeps, LPS, 48 hr)", "format": "cell-based, human", "settings": "HIVIL co-treated with TVX and LPS"}}, "data": [{"smiles": "N[C@@H]1[C@H]2CN(c3nc4c(cc3F)c(=O)c(C(=O)O)cn4-c3ccc(F)cc3F)C[C@@H]12", "note": "[TVX, Trovafloxacin]", "values": [{"measurement": "Reported in-vivo (murine) responses: TNFα", "setting": "TNFα [1]", "result": "TNFα↑"}, {"measurement": "viability at 48 hr", "setting": "[2]", "result": "63.4 ± 5", "unit": "%"}, {"measurement": "IC50", "setting": "[3]; Homo sapiens, 48 h, read-out: IC50: viability", "result": 87.7, "unit": "µM"}, {"measurement": "viability profiles among iHeps, iKCs and HIVIL", "setting": "[3]; comparison of mono-cultures and co-culture", "result": "similar"}, {"measurement": "pro-inflammatory cytokine and chemokine mRNA expression", "setting": "iHeps; LPS-treated co-cultures", "result": "significantly increased"}, {"measurement": "FADD upregulation", "setting": "iHeps; cTVX+, 25 µM", "result": 1.7, "unit": "fold"}, {"measurement": "TNFα transcription increase", "setting": "iHeps; cTVX+, 25 µM", "result": 2.3, "unit": "fold"}, {"measurement": "cIAP-2 upregulation", "setting": "iHeps; cTVX+, 25 µM", "result": 3, "unit": "fold"}, {"measurement": "caspase 3 upregulation", "setting": "iHeps; cTVX+, 25 µM", "result": 1.8, "unit": "fold"}, {"measurement": "IL-8 transcription increase", "setting": "iHeps; co-culture, cTVX+ vs. cVeh+, 25 µM", "result": 3.2, "unit": "fold"}, {"measurement": "TNFα transcription", "setting": "iHeps; mTVX+ compared to mVeh+, 25 µM", "result": 0.9, "unit": "fold"}, {"measurement": "cIAP-2 upregulation", "setting": "iHeps; mTVX+, 25 µM", "result": 1.5, "unit": "fold"}, {"measurement": "IL-8 transcription increase", "setting": "iHeps; mono-culture, mTVX+ vs. mVeh+, 25 µM", "result": 1.3, "unit": "fold"}, {"measurement": "IL-6 transcription in iHeps", "setting": "iHeps; regardless of culture conditions, result in words", "result": "slightly decreased"}, {"measurement": "TNFα induction", "setting": "TNFα [4]", "result": 1.5, "unit": "fold"}, {"measurement": "DILIrank", "setting": "[5]", "result": "most"}, {"measurement": "IL-10 response", "setting": "IL-10", "result": "dose-dependent IL-10 decrease"}, {"measurement": "IL-6 decline after 24 h", "setting": "IL-6", "result": 57.3, "unit": "%"}]}]}
